Experimental data as given in BindingDB's records for doi:10.7270/Q2251GJ9 (The Scripps Research Institute Molecular Screening Center, 2007).
Structures can show the parent of a compound that is named as a salt.

Biological target: Sphingosine 1-phosphate receptor 1 (Homo sapiens, UniProt P21453)
Test: S1P1 receptor agonists, dose response, cell-based, agonist mode, 60K MLSMR set (AID 468)
[1] = inactive by the depositor's call

Sequence of Sphingosine 1-phosphate receptor 1 (P21453 whole entry): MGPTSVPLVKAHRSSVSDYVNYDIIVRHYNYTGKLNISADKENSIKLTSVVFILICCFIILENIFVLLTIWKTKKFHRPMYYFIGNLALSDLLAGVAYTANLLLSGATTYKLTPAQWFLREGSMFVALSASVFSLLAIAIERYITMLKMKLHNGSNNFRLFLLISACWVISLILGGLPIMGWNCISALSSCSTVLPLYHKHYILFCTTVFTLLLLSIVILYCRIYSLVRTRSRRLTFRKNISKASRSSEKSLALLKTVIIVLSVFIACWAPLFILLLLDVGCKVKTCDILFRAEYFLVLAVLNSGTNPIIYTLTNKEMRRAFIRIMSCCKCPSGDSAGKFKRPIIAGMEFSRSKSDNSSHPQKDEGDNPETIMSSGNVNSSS

Compound	EC50 [µM]	EC50 [1] [µM]
O=C(CSc1nnc(Cc2csc(Nc3cccc(Cl)c3)n2)o1)N1CCc2ccccc21 [2-[[5-[[2-(3-chloroanilino)-1,3-thiazol-4-yl]methyl]-1,3,4-oxadiazol-2-yl]sulfanyl]-1-(2,3-dihydroindol-1-yl)ethanone]	> 95	
Cc1ccc(-c2nc(CSCC(=O)N3CCN(c4ccccn4)CC3)c(C)o2)cc1 [2-[[5-methyl-2-(4-methylphenyl)-1,3-oxazol-4-yl]methylsulfanyl]-1-(4-pyridin-2-ylpiperazin-1-yl)ethanone]	5.51	
CCN(CC)C(=O)CS/C(=N/C#N)Nc1ccccc1F [2-[[N-cyano-N'-(2-fluorophenyl)amidino]thio]-N,N-diethyl-acetamide]	> 95	
Clc1ccc(OCc2nnc(SCc3nc4ccccc4[nH]3)n2Cc2ccco2)cc1 [2-[[[5-[(4-chlorophenoxy)methyl]-4-(2-furanylmethyl)-1,2,4-triazol-3-yl]thio]methyl]-1H-benzimidazole]	7.6	
Nn1c(Nc2ccccc2)nc2sc3c(c2c1=O)CCC3 [2-amino-3-anilino-7,8-dihydro-6H-cyclopenta[2,3]thieno[2,4-b]pyrimidin-1-one]		16.4
Oc1ccc(C2NCc3ccccc3-n3cccc32)cc1Cl (stereo unspecified) [2-chloranyl-4-(5,6-dihydro-4H-pyrrolo[1,2-a][1,4]benzodiazepin-4-yl)phenol;hydrochloride]	3.04	
CCOC(=O)c1ccc2c(c1)C(=O)N(C1CCCCC1)C2=O [2-cyclohexyl-1,3-diketo-isoindoline-5-carboxylic acid ethyl ester]	> 95	
CCOc1nc(C)ccc1-c1noc(-c2ccncc2)n1 [2-ethoxy-6-methyl-3-[5-(4-pyridinyl)-1,2,4-oxadiazol-3-yl]pyridine]	5.42	
COc1cc(C#CC#CCN2CCCCC2)ccc1O [2-methoxy-4-(5-piperidin-1-ylpenta-1,3-diynyl)phenol;hydrochloride]	8.34	
COCC(=O)Nc1cccc(C(F)(F)F)c1 [2-methoxy-N-[3-(trifluoromethyl)phenyl]acetamide]	> 95	
Cc1nc2sc(-c3ccccc3)cc2c(=O)n1-n1cccc1 [2-methyl-6-phenyl-3-(1-pyrrolyl)-4-thieno[2,3-d]pyrimidinone]		22.2
COc1ccc(-c2cn3c(C)c(C(=O)N4CCCc5ccccc54)sc3n2)cc1 [3,4-dihydro-2H-quinolin-1-yl-[6-(4-methoxyphenyl)-3-methyl-2-imidazo[2,1-b]thiazolyl]methanone]		50.5
Cc1ccc(-c2nc(COC(=O)c3c(C)noc3C)cs2)cc1 [3,5-dimethyl-4-isoxazolecarboxylic acid [2-(4-methylphenyl)-4-thiazolyl]methyl ester]		26.2
Cc1ccc(-n2c(C)cc(C(=O)COC(=O)c3c(C)noc3C)c2C)cc1 [3,5-dimethyl-4-isoxazolecarboxylic acid [2-[2,5-dimethyl-1-(4-methylphenyl)-3-pyrrolyl]-2-oxoethyl] ester]	8.31	
N#CCCS(=O)(=O)c1nnnn1-c1ccccc1 [3-(1-phenyltetrazol-5-yl)sulfonylpropanenitrile]	3.66	
O=c1c(-c2ccc3c(c2)OCCO3)c(C(F)(F)F)oc2cc(O)cc(O)c12 [3-(2,3-dihydro-1,4-benzodioxin-6-yl)-5,7-bis(oxidanyl)-2-(trifluoromethyl)chromen-4-one]	4.13	
CCOC(=O)c1oc2cc(O)c(CC)cc2c(=O)c1-c1ccc2c(c1)OCCO2 [3-(2,3-dihydro-1,4-benzodioxin-6-yl)-6-ethyl-7-hydroxy-4-keto-chromene-2-carboxylic acid ethyl ester]	> 10	
Cc1cc(-c2nnc(-c3ccccc3)c(-c3ccccc3)n2)c(C)o1 [3-(2,5-dimethyl-3-furanyl)-5,6-diphenyl-1,2,4-triazine]	2.97	
Cc1onc(-c2ccccc2Cl)c1C(=O)Oc1cc(N)n(S(=O)(=O)c2ccc(F)cc2)n1 [3-(2-chlorophenyl)-5-methyl-4-isoxazolecarboxylic acid [5-amino-1-(4-fluorophenyl)sulfonyl-3-pyrazolyl] ester]		18.1
CCOc1ccc(-c2noc(-c3ccncc3)n2)cc1OCC [3-(3,4-diethoxyphenyl)-5-(4-pyridyl)-1,2,4-oxadiazole]	0.613	
Cc1oc2cc(O)cc(O)c2c(=O)c1-c1ccc2c(c1)OCCCO2 [3-(3,4-dihydro-2H-1,5-benzodioxepin-7-yl)-2-methyl-5,7-bis(oxidanyl)chromen-4-one]	4.54	
COc1ccc(-c2noc(-c3cc(C)cc(C)c3)n2)cc1OC [3-(3,4-dimethoxyphenyl)-5-(3,5-dimethylphenyl)-1,2,4-oxadiazole]	1.23	
CCOc1cc(-c2noc(-c3cccnc3)n2)ccc1OC [3-(3-ethoxy-4-methoxy-phenyl)-5-(3-pyridyl)-1,2,4-oxadiazole]		18.7
COc1ccccc1-c1nc(-c2ccc(Br)cc2)no1 [3-(4-bromophenyl)-5-(2-methoxyphenyl)-1,2,4-oxadiazole]		12
CCOc1ccc(-c2noc(-c3cccnc3)n2)cc1OC [3-(4-ethoxy-3-methoxy-phenyl)-5-(3-pyridyl)-1,2,4-oxadiazole]	1.2	
CC(C)Oc1cc(O)c2c(=O)c(-c3ccc(O)cc3)coc2c1 [3-(4-hydroxyphenyl)-5-oxidanyl-7-propan-2-yloxy-chromen-4-one]	> 1	

Compound	EC50 [µM]	EC50 [1] [µM]
COc1ccc(Cc2nc(-c3ccc(-n4cccc4)cc3)no2)cc1OC [3-(4-pyrrol-1-ylphenyl)-5-veratryl-1,2,4-oxadiazole]		13.7
COc1ccc(-c2nc(-c3ccc(Br)o3)no2)cc1OC [3-(5-bromanylfuran-2-yl)-5-(3,4-dimethoxyphenyl)-1,2,4-oxadiazole]	7.98	
CN(C)CC(C(=O)c1ccccc1)c1ccccc1 (stereo unspecified) [3-(dimethylamino)-1,2-diphenyl-1-propanone;hydrochloride]	9.7	
CCSc1nc(N2CCOCC2)c2c(c1C#N)CCCC2 [3-(ethylthio)-1-(4-morpholinyl)-5,6,7,8-tetrahydroisoquinoline-4-carbonitrile]		46.8
CCOc1ccc(-c2nc(-c3ccccc3C)no2)cc1 [3-(o-tolyl)-5-p-phenetyl-1,2,4-oxadiazole]	1.87	
Nc1c(C(=O)NC2CCCC2)sc2nc(-c3cccs3)ccc12 [3-Amino-6-thiophen-2-yl-thieno[2,3-b]pyridine-2-carboxylic acid cyclopentylamide]		14.4
CN(C)c1ccnc2sc3c(=O)n(Cc4ccccc4)cnc3c12 [3-Benzyl-9-dimethylamino-3H-pyrido[3',2':4,5]thieno[3,2-d]pyrimidin-4-one]	2.47	
CC/N=c1\sc(C(=O)NCCc2ccccc2)cc(=O)n1CC [3-Ethyl-2-[(Z)-ethylimino]-4-oxo-3,4-dihydro-2H-[1,3]thiazine-6-carboxylic acid phenethyl-amide]		22.5
Cc1cc(NC(=O)c2oc3ccccc3c2C)ccc1-n1cnnn1 [3-Methyl-benzofuran-2-carboxylic acid (3-methyl-4-tetrazol-1-yl-phenyl)-amide]	7.44	
Cc1cc(C(=O)CC#N)c(C)n1-c1ccc(OC(F)F)cc1 [3-[1-[4-(difluoromethoxy)phenyl]-2,5-dimethyl-3-pyrrolyl]-3-oxopropanenitrile]	> 10	
O=C(CCc1nc(-c2ccccc2F)no1)Nc1ccc(Oc2ccccc2)cc1 [3-[3-(2-fluorophenyl)-1,2,4-oxadiazol-5-yl]-N-(4-phenoxyphenyl)propanamide]	4.94	
CCN(CC)S(=O)(=O)c1cccc(S(=O)(=O)c2cccc(S(=O)(=O)N(CC)CC)c2)c1 [3-[3-(diethylsulfamoyl)phenyl]sulfonyl-N,N-diethyl-benzenesulfonamide]		19.3
COc1ccc(/N=c2\scc(-c3ccc(S(=O)(=O)N4CCOCC4)cc3)n2CCCO)cc1 [3-[(2Z)-2-[(4-methoxyphenyl)imino]-4-[4-(morpholin-4-ylsulfonyl)phenyl]-1,3-thiazol-3(2H)-yl]propan-1-ol]	13.2	
CCn1c(NC(=O)c2cccc(Cn3cc(Cl)cn3)c2)nc2ccccc21 [3-[(4-chloranylpyrazol-1-yl)methyl]-N-(1-ethylbenzimidazol-2-yl)benzamide]		14
CCOc1ccc(C(=O)Nc2c(C(N)=O)oc3ccccc23)cc1 [3-[(4-ethoxybenzoyl)amino]-1-benzofuran-2-carboxamide]	4.08	
C=CCn1c(SCC(=O)c2cccs2)nc2sc(CC)cc2c1=O [3-allyl-6-ethyl-2-[[2-keto-2-(2-thienyl)ethyl]thio]thieno[2,3-d]pyrimidin-4-one]		39.9
CCOc1ccc(C(=O)Nc2ccc(Cl)cn2)cc1Cl [3-chloranyl-N-(5-chloranylpyridin-2-yl)-4-ethoxy-benzamide]	5.51	
Cc1ccc(O)c(NC(=O)CCC2CCCCC2)c1 [3-cyclohexyl-N-(2-hydroxy-5-methyl-phenyl)propionamide]	> 95	
Cc1ccsc1C(=O)OCC(=O)c1cc(C)n(CC2CCCO2)c1C (stereo unspecified) [3-methyl-2-thiophenecarboxylic acid [2-[2,5-dimethyl-1-(2-oxolanylmethyl)-3-pyrrolyl]-2-oxoethyl] ester]	7.53	
Cc1nnc2ccc(Oc3ccc(-c4ccccc4)cc3)nn12 [3-methyl-6-(4-phenylphenoxy)-[1,2,4]triazolo[4,3-b]pyridazine]	5.08	
Cn1c(=O)oc2cc(S(=O)(=O)N3CCCC(C(=O)N4CC=C(c5ccccc5)CC4)C3)ccc21 (stereo unspecified) [3-methyl-6-[3-(4-phenyl-3,6-dihydro-2H-pyridine-1-carbonyl)piperidin-1-yl]sulfonyl-1,3-benzoxazol-2-one]	9.63	
Oc1ccc(-c2nnc(-c3ccc(O)cc3)nn2)cc1 [4,4'-(1,2,4,5-tetrazine-3,6-diyl)diphenol]	> 10	
Cc1cc(C(=O)COC(=O)c2csc3c2CCCC3)c(C)n1C [4,5,6,7-tetrahydro-1-benzothiophene-3-carboxylic acid [2-oxo-2-(1,2,5-trimethyl-3-pyrrolyl)ethyl] ester]		18.6
Nc1ccc(N2CCCCCC2)cc1 [4-(1-azepanyl)aniline;hydrochloride]	> 10	
NC(=O)c1ccc(OCC(F)(F)C(F)(F)C(F)(F)C(F)(F)C(F)(F)C(F)F)cc1 [4-(2,2,3,3,4,4,5,5,6,6,7,7-dodecafluoroheptoxy)benzamide]	8	
